Experimental data published in US20080305534A1, “Novel Glycerol Dehydrogenase, Gene Therefor, and Method of Utilizing the Same” (priority 2004, published 2008).

B1: RCG: glycerol dehydrogenase derived from Cellulomonas sp. strain KNK0102, amino acid sequence SEQ ID NO: 1 (protein, listed as Cellulomonas sp.)
chain: MSEVPVRTLISPLRYVQARGALTRLGEFVRPIGTKPLLVADDVVWGIVQDTVAVSFQEQDLPRHRTGFGTYATAAEVDRLAREIDELGADVIVGIGGGSTIDAVKAAGHLRGIRWVSVPTVASTDAPCSALSVIYTEDGAFEEYRFFPHNPDLVLVDTGLVANAPVKFLVAGVGDALATWIEARAVAEANASTMAGGLPLVTGTALAQLSWDILWENALPAIDAVKNHLVTPAVEKVVEANTLLSGLGFESGGLAAAHAIHNGLTAAPQTHGLTHGQKVNIGSVTQLVLEGAPTEEIEEFVRFTTRVGLPNTLTEIGLTADDVHDLTRVAEAATAEGETIHAMPFPVRVPELVDALRSIEGFSRRVRAEAGLPEPVKHTAH

test system: RCG; experiment: Substrate specificity of RCG (oxidation activity with NAD+); assay type: biochemical, Cellulomonas sp. strain KNK0102; settings: pH 8
Protocol: Oxidation activity was determined by adding 2 mM of coenzyme NAD^+, 10 mM of a compound shown in Table 2, and the enzyme solution to a 100 mM phosphate buffer (pH 8.0) to react at 30° C. for 3 min. followed by the measurement of an increase in absorbance at the wavelength of […]. In Table 2, relative activities are summarized, wherein the activity for glycerol is 100.

Row | Molecule | Relative activity
1 | OCCO [ethylene glycol] | 8%
2 | OCCCCO [1,4-butanediol] | 1%

same assay, conditions: substrate 10 mM, 2 mM NAD+, 100 mM phosphate buffer pH 8.0, 30° C., 3 min; activity for glycerol is 100

Row | Molecule | Relative activity
3 | OCCC(O)CO (stereo not shown) [1,2,4-butanetriol] | 21%
4 | CCCC(O)CO (stereo not shown) [1,2-pentanediol] | 153%
5 | CC(O)CCCO (stereo not shown) [1,4-pentanediol] | 0%
6 | CSCC(O)CO (stereo not shown) [3-methylthio-1,2-propanediol] | 120%
7 | CC(O)C(C)O (stereo not shown) [2,3-butanediol] | 64%
8 | OCC(O)CS (stereo not shown) [3-mercapto-1,2-propanediol] | 129%
9 | CC(O)CO (stereo not shown) [1,2-propanediol] | 142%
10 | butanol | 0%
11 | OCCCO [1,3-propanediol] | 1%
12 | CCC(O)CO (stereo not shown) [1,2-butanediol] | 129%
13 | OC(CCl)CCl [1,3-dichloro-2-propanol] | 0%
14 | CO [methanol] | 0%
15 | OCC(O)CO [glycerol] | 100%
16 | 2-butanol | 0%
17 | 1-amino-2-propanol | 12%
18 | OCC(O)COc1ccccc1 (stereo not shown) [3-phenoxy-1,2-propanediol] | 9%
19 | COCC(O)CO (stereo not shown) [3-methoxy-1,2-propanediol] | 39%
20 | OCC(O)CCl (stereo not shown) [3-chloro-1,2-propanediol] | 63%
21 | CC(C)O [isopropanol] | 0%
22 | CCCO [propanol] | 0%
23 | CC(O)CCO (stereo not shown) [1,3-butanediol] | 3%
24 | CCCCC(O)CO (stereo not shown) [1,2-hexanediol] | 26%
25 | CCO [ethanol] | 0%
26 | OCC(O)CBr (stereo not shown) [3-bromo-1,2-propanediol] | 58%

test system: not given; experiment: not given; assay type: biochemical; settings: not given
Protocol: Herein, the expression “having resistance to 1-chloro-3-hydroxyacetone” means that when 1-chloro-3-hydroxyacetone is added to a solution containing the polypeptide (the enzyme) of the present invention at the final concentration of 0.25% and the mixture is incubated at 30° C. for 20 hrs. followed by the determination of the activity to reduce 1-chloro-3-hydroxyacetone under the conditions described above, the resulting activity is 80% or more, preferably 85% or more, more preferably 90% or more of the activity determined without the pretreatment.
Likewise, the expression “having resistance to 3-chloro-1,2-propanediol” means that when the activity to reduce 1-chloro-3-hydroxyacetone is determined after incubation at 30° C. for 20 hrs. in the presence of 1% of 3-chloro-1,2-propanediol, the resulting activity is 80% or more, preferably 90% or more, more preferably 95% or more of the activity determined without the pretreatment.
In order to study the stability of RCG to 1-chloro-3-hydroxyacetone and to 3-chloro-1,2-propanediol, 1-chloro-3-hydroxyacetone was added at the final concentration of 0.25% to the enzyme solution and incubated at 30° C. followed by the measurement of the activity to reduce 1-chloro-3-hydroxyacetone by using the above enzyme solution. […]

Row | Molecule | stability to 1-chloro-3-hydroxyacetone | stability to 3-chloro-1,2-propanediol
27 | B1 | very stable | very stable

test system: not listed separately; experiment: Optimum pH of RCG for oxidation (activity to oxidize glycerol); assay type: biochemical; settings: 0.1 M glycerol, 2 mM NAD+, 30° C., pH 6 to pH 11
Protocol: In order to study the optimum pH of RCG for oxidation, the activity to oxidize glycerol at pH6 to pH 11 was determined. The enzyme activity was determined by adding 0.1 M of the substrate glycerol, 2 mM of coenzyme NAD^+, 50 mM of KCl, 50 mM of NH4Cl, and the enzyme solution to a buffer to react at 30° C. for 3 min. followed by the measurement of an increase in absorbance at […]. As buffers, 100 mM phosphate buffers (pH 6.0 to pH 8.0), 100 mM Tris-HCl buffers (pH 8.0 to 9.0), and 100 mM carbonic acid buffers (pH 9.0 to pH 11.0) were used to measure the activity at pH 6 to pH 11.

Row | Molecule | optimum pH for oxidation
28 | B1 | 9.0

test system: not listed separately; experiment: Optimum pH of RCG for reduction (activity to reduce dihydroxyacetone); assay type: biochemical; settings: 10 mM dihydroxyacetone, 0.167 mM NADH, 30° C., pH 4 to pH 9
Protocol: In order to study the optimum pH of RCG for reduction, the activity to reduce dihydroxyacetone at pH 4 to pH 9 was determined. The enzyme activity was determined by adding 10 mM of the substrate dihydroxyacetone, 0.167 mM of coenzyme NADH, 50 mM of KCl, 50 mM of NH4Cl, and the enzyme solution to a buffer to react at 30° C. for 3 min. followed by the measurement of a decrease in absorbance at […]. As buffers, 100 mM acetic acid buffers (pH4.0 to pH 6.0), 100 mM phosphate buffers (pH 6.0 to pH 8.0), and 100 mM Tris-HCl buffers (pH 8.0 to 9.0) were used to measure the activity at pH 4 to pH 9.

Row | Molecule | optimum pH for reduction
29 | B1 | 6.0

test system: not listed separately; experiment: Action of RCG: stereoselective reduction of 1-chloro-3-hydroxyacetone; assay type: biochemical; settings: reduction of 1-chloro-3-hydroxyacetone using NADH as a coenzyme
Protocol: Furthermore, optical purity of the resulting 3-chloro-1,2-propanediol was determined by high performance liquid chromatography after tosylation.

Row | Molecule | optical purity of (S)-3-chloro-1,2-propanediol formed
30 | B1 | 99.3 % e.e.
